Reference: patent US20250127906A1, “SMALL-MOLECULE DEGRADERS OF CDK8 AND CDK19” (University of South Carolina, priority 2021, published 2025)

Legend:
[1] = test system: CDK8/CDK19/CCNC protein degradation and STAT1 S727 phosphorylation; test: Wash-off study in HEK-293 cells, Western blot; format: cell-based, human; details: HEK-293, within 24 hours after removal of drug-containing media
MV4-11 cells = test: Long-term growth of MV4-11 cells under continuous treatment; format: cell-based, human; details: MV4-11, 300 nM continuous
Experimental: The anti-proliferative effects of a PROTAC and a kinase inhibitor were compared in leukemia cell lines. In the long-term treatment experiment shown in FIG. 11A, Jurkat cells (0.1 million cells) were continuously treated with vehicle control (0.1% DMSO), 300 nM BI-1347 or 300 nM IA7886 for 53 days (each condition in biological triplicates). Every 7-8 days, live cells were counted using BioRAD TC20 Automated Cell Counter with trypan blue staining: 0.1 million live cells were passaged to a new T25 flask to propagate under the same treatment conditions. The survival fraction was calculated by dividing the accumulated number of drug-treated cells with the accumulated number of vehicle-treated cells. […] This sustained inhibition property of PROTAC was also observed in MV4-11, a leukemia cell line highly sensitive to CDK8/19 kinase inhibitors.

CCL12 = CCL12 mRNA expression in CT26 tumors in Balb/c mice (QPCR); format: in vivo; details: oral gavage 20 mg/kg, 2, 8 or 24 hrs after dosing
Experimental: CT26 cells were injected subcutaneously into syngeneic Balb/c female mice and allowed to grow to 150˜200 mm^3. Tumor-bearing mice then received PROTACs IA7882 or IA7886 by oral gavage at 20 mg/kg in 30% propylene glycol/70% PEG-400 vehicle. Tumors were collected 2, 8 or 24 hrs after dosing and used to measure protein levels of CDK8, pS727 STAT1 and total STAT1 (by western blotting) and mRNA expression of CCL12, a gene that is inhibited by different CDK8/19 inhibitors in CT26 tumors in vivo (by QPCR).

CDK8 [2] = target: CDK8 (Homo sapiens, UniProt P49336); test: CDK8 degradation in other human cell lines (22Rv1, MV4-11, HAP-1, HTB-185, SAOS2, SJSA-1); format: cell-based; parameters: endogenous in cells; details: 24-hr treatment
Chain of CDK8 (Homo sapiens, UniProt P49336) (P49336 whole entry): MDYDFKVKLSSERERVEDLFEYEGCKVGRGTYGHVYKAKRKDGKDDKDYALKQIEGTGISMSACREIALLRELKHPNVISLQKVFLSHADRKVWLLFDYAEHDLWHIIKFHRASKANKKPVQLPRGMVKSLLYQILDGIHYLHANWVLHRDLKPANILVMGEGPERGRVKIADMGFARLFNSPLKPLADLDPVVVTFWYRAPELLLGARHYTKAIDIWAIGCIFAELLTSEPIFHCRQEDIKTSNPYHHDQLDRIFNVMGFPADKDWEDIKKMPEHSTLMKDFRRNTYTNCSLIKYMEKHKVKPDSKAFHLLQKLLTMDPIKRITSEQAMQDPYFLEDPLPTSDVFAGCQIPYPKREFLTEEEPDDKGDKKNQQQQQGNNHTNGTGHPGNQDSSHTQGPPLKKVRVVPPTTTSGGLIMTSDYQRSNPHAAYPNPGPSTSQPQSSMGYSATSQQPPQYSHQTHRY
Chain of CDK8 (Homo sapiens, UniProt P49336) (P24863 whole entry partner): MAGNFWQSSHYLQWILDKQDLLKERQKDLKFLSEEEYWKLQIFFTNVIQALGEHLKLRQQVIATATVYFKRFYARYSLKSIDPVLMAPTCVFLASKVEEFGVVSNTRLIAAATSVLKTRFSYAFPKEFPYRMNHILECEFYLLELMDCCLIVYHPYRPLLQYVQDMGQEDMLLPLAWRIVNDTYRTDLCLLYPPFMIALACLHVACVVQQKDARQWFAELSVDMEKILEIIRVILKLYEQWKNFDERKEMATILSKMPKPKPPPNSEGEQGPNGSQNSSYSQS
Description: FIG. 5 illustrates the effects of the novel PROTACs HP8580, IA7843 and IA7886 on CDK8 and CDK19 degradation in other human cell lines, including 22Rv1 prostate cancer (expressing more CDK19 than CDK8), MV4-11 (AML) and HAP-1 (CML) leukemia cell lines, HTB-185 medulloblastoma, and SAOS2 and SJSA-1 osteosarcoma (the latter expressing only CDK19 but not CDK8).

CDK8 [3] = target: T1, CDK8 (Mus musculus, UniProt Q8R3L8); test: CDK8 degradation in murine CT26 colon carcinoma cells; format: cell-based; parameters: endogenous in cells; host or cells: CT26
T1 sequence (Q8R3L8 1-464): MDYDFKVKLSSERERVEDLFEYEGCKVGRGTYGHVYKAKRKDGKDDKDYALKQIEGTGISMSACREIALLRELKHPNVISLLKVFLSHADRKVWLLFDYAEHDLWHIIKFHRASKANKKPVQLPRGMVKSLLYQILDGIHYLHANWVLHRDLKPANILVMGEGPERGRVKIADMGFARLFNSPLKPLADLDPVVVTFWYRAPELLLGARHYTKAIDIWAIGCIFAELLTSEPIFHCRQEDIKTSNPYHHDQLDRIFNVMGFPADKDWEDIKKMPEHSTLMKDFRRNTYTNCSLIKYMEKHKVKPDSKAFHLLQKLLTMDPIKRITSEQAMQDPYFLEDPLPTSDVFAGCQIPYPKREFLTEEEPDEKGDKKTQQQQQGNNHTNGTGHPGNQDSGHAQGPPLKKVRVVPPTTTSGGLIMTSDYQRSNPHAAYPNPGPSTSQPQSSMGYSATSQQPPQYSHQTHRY
T1 sequence (Q62447 1-283 partner): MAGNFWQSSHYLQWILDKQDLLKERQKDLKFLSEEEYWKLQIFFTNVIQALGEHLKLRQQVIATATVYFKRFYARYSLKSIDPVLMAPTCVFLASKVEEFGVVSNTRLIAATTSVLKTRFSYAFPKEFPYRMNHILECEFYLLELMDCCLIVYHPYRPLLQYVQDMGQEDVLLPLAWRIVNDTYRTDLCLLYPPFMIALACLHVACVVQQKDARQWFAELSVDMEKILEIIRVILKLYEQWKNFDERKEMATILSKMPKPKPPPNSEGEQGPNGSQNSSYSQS
Description: Both the extent and the kinetics of CDK8 degradation were similar between two cell lines, with the degradation reaching maximum at about 8 hrs of PROTAC treatment.

CDK19 [4] = target: T2, CDK19 (Homo sapiens, UniProt Q9BWU1); test: CDK19 degradation in HEK-293 cells (Western blot); format: cell-based; parameters: PROTACs on CDK8 and CDK19 degradation in HEK-293cells; endogenous in cells; host or cells: HEK-293; details: concentration degrading CDK19 to half of level in untreated cells
Description: Furthermore, the degradation of both CDK8 and CDK19 by the PROTACs is also seen to decrease the levels of their binding partner cyclin C (CCNC) (FIG. 2B, D, E), which is known to be protected from proteolytic degradation by its interaction with CDK8 (Barette et al., 2001).
FIGS. 2F and 2G show the effects of different concentrations of potent Senexin C- and BI-1347-based PROTACs on CDK8 and CDK19 degradation in HEK-293cells. Based on these assays, we calculated DC50 values that correspond to PROTAC concentrations inducing degradation of CDK8 and CDK19 to the half of protein level in untreated cells. The corresponding CDK8 DC50 values were 46 nM for IA7843, 6.6 nM for IA7882 and 2.8 nM for IA7886, and CDK19 DC50 values were 1 μM for IA7843, 25 nM for IA7882 and 10 nM for IA7886.
Target sequence in this assay (Q9BWU1 whole entry): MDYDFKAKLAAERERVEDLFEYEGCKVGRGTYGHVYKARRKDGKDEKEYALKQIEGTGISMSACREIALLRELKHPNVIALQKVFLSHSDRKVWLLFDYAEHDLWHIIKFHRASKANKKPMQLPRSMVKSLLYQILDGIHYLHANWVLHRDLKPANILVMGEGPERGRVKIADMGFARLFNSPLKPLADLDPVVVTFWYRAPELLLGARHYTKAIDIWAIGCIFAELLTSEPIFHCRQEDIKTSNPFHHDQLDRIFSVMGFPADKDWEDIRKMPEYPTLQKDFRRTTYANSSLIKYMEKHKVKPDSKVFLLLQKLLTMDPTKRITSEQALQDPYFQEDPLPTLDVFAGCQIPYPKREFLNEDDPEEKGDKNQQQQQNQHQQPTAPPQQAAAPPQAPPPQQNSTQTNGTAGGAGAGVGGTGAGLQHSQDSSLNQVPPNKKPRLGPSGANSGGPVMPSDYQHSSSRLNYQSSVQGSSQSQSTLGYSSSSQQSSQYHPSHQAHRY
Target sequence in this assay (P24863 whole entry partner): as the sequence (P24863 whole entry partner) above

CDK19 [5] = target: T2, CDK19; test: CDK19 degradation in HEK-293 cells with CRISPR knockout of CCNC; format: cell-based; parameters: a derivative of HEK-293cells with CRISPR-mediated knockout of CCNC; endogenous in cells; host or cells: HEK-293 with CRISPR knockout of CCNC; details: HEK-293 CCNC-knockout cells, 24 hr treatment
Description: This cell line, however, is unique in lacking Cyclin C (CCNC), the binding partner of CDK8/19. To test if the absence of CDK8-bound CCNC was responsible for the loss of IA7843 CDK8-degrading activity, we have tested the effect of IA7843 on a derivative of HEK-293cells with CRISPR-mediated knockout of CCNC.
Target sequence in this assay (Q9BWU1 whole entry): as the sequence (Q9BWU1 whole entry) above

O=C(CCCNc1cccc2c1C(=O)N(C1CCC(=O)NC1=O)C2=O)NCCCCCCCCCCC(=O)N1CCN(C(=O)Cn2cc(-c3ccc(-c4cncc5ccccc45)cc3)cn2)CC1 (centres unmarked) [IA7886, 4-[[2-(2,6-dioxo-3-piperidyl)-1,3-dioxo-isoindolin-4-yl]amino]-N-[11-[4-[2-[4-[4-(4-isoquinolyl)phenyl]pyrazol-1-yl]acetyl]piperazin-1-yl]-11-oxo-undecyl]butanamide]
effects on CDK8/CDK19/CCNC protein degradation and STAT1 S727 phosphorylation after removal of drug [1]: remained nearly unchanged | growth inhibition over 60 days (MV4-11 cells): much more stable and continued for the entire 60 days | levels of CCL12 mRNA in tumors (CCL12): decreased in tumors treated with IA7882 or IA7886 2 hrs or 8 hrs (but not 24 hrs) after dosing | CDK8 degradation (in words) (CDK8 [2]): significantly degraded CDK8 and CDK19 in all the tested cell lines | CDK8 degradation (in words) (CDK8 [3]): induce CDK8 degradation in both cell lines | time at which CDK8 degradation reaches maximum (CDK8 [3]; 100 nM): about 8 hrs | DC50 (CDK19 [4]): 10 nM | CDK19 degradation (in words) (CDK19 [5]): efficiently degraded CDK8 and CDK19
